ChEMBL document CHEMBL3885881, “DrugMatrix”

Species on record: Rattus norvegicus
Assay: DrugMatrix - Regimen: Daily Repeat
Format: toxicity, organism-based, Sprague-Dawley
Parameters: regimen Daily Repeat, gender Male, age 6-8 weeks
Conditions: in vivo, po, route oral GAVAGE, vehicle .5 % CMC; for ABSOLUTE BASOPHIL / ABSOLUTE EOSINOPHIL / ABSOLUTE LYMPHOCYTE / ABSOLUTE MONOCYTE / ABSOLUTE SEGMENTED NEUTROPHIL / BASOPHIL / EOSINOPHIL / ERYTHROCYTE COUNT / HEMATOCRIT / HEMOGLOBIN / LEUKOCYTE COUNT / LYMPHOCYTE / MEAN CORPUSCULAR HEMOGLOBIN / MEAN CORPUSCULAR HEMOGLOBIN CONCENTRATION / MEAN CORPUSCULAR VOLUME / MONOCYTE / NEUTROPHIL / NUCLEATED RED BLOOD CELLS / PLATELET COUNT: tissue Blood; for ALANINE AMINOTRANSFERASE / ALBUMIN / ALKALINE PHOSPHATASE / ASPARTATE AMINOTRANSFERASE / BLOOD UREA NITROGEN / CARBON DIOXIDE / CHLORIDE / CHOLESTEROL / CREATINE PHOSPHOKINASE / CREATININE / GLUCOSE / LACTATE DEHYDROGENASE / LIPASE / PHOSPHORUS / POTASSIUM / SODIUM / TOTAL BILIRUBIN / TOTAL PROTEIN / URIC ACID: tissue Plasma
[1] = 50 mg/kg, 72 h, dose level Low, time 3 day
[2] = 50 mg/kg, 120 h, dose level Low, time 5 day
[3] = 350 mg/kg, 72 h, dose level High, time 3 day
[4] = 350 mg/kg, 120 h, dose level High, time 5 day

Cc1cccc(C)c1OCC(C)N (configuration not stated) [MEXILETINE]
ABSOLUTE BASOPHIL [1]: 0 CELLS/uL | ABSOLUTE EOSINOPHIL [1]: 76.67 CELLS/uL | ABSOLUTE LYMPHOCYTE [1]: 11625.67 CELLS/uL | ABSOLUTE MONOCYTE [1]: 164.33 CELLS/uL | ABSOLUTE SEGMENTED NEUTROPHIL [1]: 733.33 CELLS/uL | BASOPHIL [1]: 0% | EOSINOPHIL [1]: 0.67% | ERYTHROCYTE COUNT [1]: 5.83 x10E6/uL | HEMATOCRIT [1]: 36.67% | HEMOGLOBIN [1]: 13.2 G/DL | LEUKOCYTE COUNT [1]: 12.6 x10E3/uL | LYMPHOCYTE [1]: 92.33% | MEAN CORPUSCULAR HEMOGLOBIN [1]: 22.63 pg | MEAN CORPUSCULAR HEMOGLOBIN CONCENTRATION [1]: 36 G/DL | MEAN CORPUSCULAR VOLUME [1]: 62.9 fL | MONOCYTE [1]: 1.33% | NEUTROPHIL [1]: 5.67% | NUCLEATED RED BLOOD CELLS [1]: 0 /100WBC | PLATELET COUNT [1]: 1579.67 x10E3/uL | ALANINE AMINOTRANSFERASE [1]: 39.67 u/L | ALBUMIN [1]: 4.47 G/DL | ALKALINE PHOSPHATASE [1]: 347.33 u/L | ASPARTATE AMINOTRANSFERASE [1]: 70.33 u/L | BLOOD UREA NITROGEN [1]: 15 mg/dL | CARBON DIOXIDE [1]: 26.67 mmol/L | CHLORIDE [1]: 103.33 MEQ/L | CHOLESTEROL [1]: 73 mg/dL | CREATINE PHOSPHOKINASE [1]: 249.33 u/L | CREATININE [1]: 0.18 mg/dL | GLUCOSE [1]: 168.67 mg/dL | LACTATE DEHYDROGENASE [1]: 90 u/L | LIPASE [1]: 9 u/L | PHOSPHORUS [1]: 13.23 mg/dL | POTASSIUM [1]: 6.67 MEQ/L | SODIUM [1]: 144.43 MEQ/L | TOTAL BILIRUBIN [1]: 0.2 mg/dL | TOTAL PROTEIN [1]: 6 G/DL | URIC ACID [1]: 2.37 mg/dL | ABSOLUTE BASOPHIL [2]: 0 CELLS/uL | ABSOLUTE EOSINOPHIL [2]: 311.67 CELLS/uL | ABSOLUTE LYMPHOCYTE [2]: 17277 CELLS/uL | ABSOLUTE MONOCYTE [2]: 358.33 CELLS/uL | ABSOLUTE SEGMENTED NEUTROPHIL [2]: 1686.33 CELLS/uL | BASOPHIL [2]: 0% | EOSINOPHIL [2]: 1.67% | ERYTHROCYTE COUNT [2]: 5.61 x10E6/uL | HEMATOCRIT [2]: 35.37% | HEMOGLOBIN [2]: 13.43 G/DL | LEUKOCYTE COUNT [2]: 19.63 x10E3/uL | LYMPHOCYTE [2]: 88% | MEAN CORPUSCULAR HEMOGLOBIN [2]: 23.97 pg | MEAN CORPUSCULAR HEMOGLOBIN CONCENTRATION [2]: 38 G/DL | MEAN CORPUSCULAR VOLUME [2]: 63.13 fL | MONOCYTE [2]: 1.67% | NEUTROPHIL [2]: 8.67% | NUCLEATED RED BLOOD CELLS [2]: 0 /100WBC | PLATELET COUNT [2]: 1342.33 x10E3/uL | ALANINE AMINOTRANSFERASE [2]: 52 u/L | ALBUMIN [2]: 4.23 G/DL | ALKALINE PHOSPHATASE [2]: 414.33 u/L | ASPARTATE AMINOTRANSFERASE [2]: 89 u/L | BLOOD UREA NITROGEN [2]: 18.67 mg/dL | CARBON DIOXIDE [2]: 24.33 mmol/L | CHLORIDE [2]: 106.67 MEQ/L | CHOLESTEROL [2]: 62 mg/dL | CREATINE PHOSPHOKINASE [2]: 325.67 u/L | CREATININE [2]: 0.19 mg/dL | GLUCOSE [2]: 163.67 mg/dL | LACTATE DEHYDROGENASE [2]: 469 u/L | LIPASE [2]: 8.67 u/L | PHOSPHORUS [2]: 12.77 mg/dL | POTASSIUM [2]: 6.24 MEQ/L | SODIUM [2]: 144.53 MEQ/L | TOTAL BILIRUBIN [2]: 0.3 mg/dL | TOTAL PROTEIN [2]: 6.4 G/DL | URIC ACID [2]: 1.83 mg/dL | ABSOLUTE BASOPHIL [3]: 0 CELLS/uL | ABSOLUTE EOSINOPHIL [3]: 77.33 CELLS/uL | ABSOLUTE LYMPHOCYTE [3]: 8910.33 CELLS/uL | ABSOLUTE MONOCYTE [3]: 236 CELLS/uL | ABSOLUTE SEGMENTED NEUTROPHIL [3]: 643 CELLS/uL | BASOPHIL [3]: 0% | EOSINOPHIL [3]: 0.67% | ERYTHROCYTE COUNT [3]: 6.04 x10E6/uL | HEMATOCRIT [3]: 38.2% | HEMOGLOBIN [3]: 14.37 G/DL | LEUKOCYTE COUNT [3]: 9.87 x10E3/uL | LYMPHOCYTE [3]: 90.33% | MEAN CORPUSCULAR HEMOGLOBIN [3]: 23.87 pg | MEAN CORPUSCULAR HEMOGLOBIN CONCENTRATION [3]: 37.63 G/DL | MEAN CORPUSCULAR VOLUME [3]: 63.37 fL | MONOCYTE [3]: 2.33% | NEUTROPHIL [3]: 6.67% | NUCLEATED RED BLOOD CELLS [3]: 0.33 /100WBC | PLATELET COUNT [3]: 1205.33 x10E3/uL | ALANINE AMINOTRANSFERASE [3]: 60.67 u/L | ALBUMIN [3]: 5.13 G/DL | ALKALINE PHOSPHATASE [3]: 464.67 u/L | ASPARTATE AMINOTRANSFERASE [3]: 73.67 u/L | BLOOD UREA NITROGEN [3]: 13 mg/dL | CARBON DIOXIDE [3]: 27.33 mmol/L | CHLORIDE [3]: 102 MEQ/L | CHOLESTEROL [3]: 86 mg/dL | CREATINE PHOSPHOKINASE [3]: 277.67 u/L | CREATININE [3]: 0.21 mg/dL | GLUCOSE [3]: 139.67 mg/dL | LACTATE DEHYDROGENASE [3]: 118 u/L | LIPASE [3]: 9 u/L | PHOSPHORUS [3]: 10.8 mg/dL | POTASSIUM [3]: 5.61 MEQ/L | SODIUM [3]: 145.8 MEQ/L | TOTAL BILIRUBIN [3]: 0.23 mg/dL | TOTAL PROTEIN [3]: 7.07 G/DL | URIC ACID [3]: 0.77 mg/dL | ABSOLUTE BASOPHIL [4]: 0 CELLS/uL | ABSOLUTE EOSINOPHIL [4]: 203 CELLS/uL | ABSOLUTE LYMPHOCYTE [4]: 12514 CELLS/uL | ABSOLUTE MONOCYTE [4]: 136 CELLS/uL | ABSOLUTE SEGMENTED NEUTROPHIL [4]: 747 CELLS/uL | BASOPHIL [4]: 0% | EOSINOPHIL [4]: 1.5% | ERYTHROCYTE COUNT [4]: 6.13 x10E6/uL | HEMATOCRIT [4]: 38% | HEMOGLOBIN [4]: 14.05 G/DL | LEUKOCYTE COUNT [4]: 13.6 x10E3/uL | LYMPHOCYTE [4]: 92% | MEAN CORPUSCULAR HEMOGLOBIN [4]: 22.9 pg | MEAN CORPUSCULAR HEMOGLOBIN CONCENTRATION [4]: 37 G/DL | MEAN CORPUSCULAR VOLUME [4]: 62.05 fL | MONOCYTE [4]: 1% | NEUTROPHIL [4]: 5.5% | NUCLEATED RED BLOOD CELLS [4]: 0 /100WBC | PLATELET COUNT [4]: 1422.5 x10E3/uL | ALANINE AMINOTRANSFERASE [4]: 55 u/L | ALBUMIN [4]: 4.35 G/DL | ALKALINE PHOSPHATASE [4]: 464 u/L | ASPARTATE AMINOTRANSFERASE [4]: 93.5 u/L | BLOOD UREA NITROGEN [4]: 15 mg/dL | CARBON DIOXIDE [4]: 24 mmol/L | CHLORIDE [4]: 105 MEQ/L | CHOLESTEROL [4]: 59 mg/dL | CREATINE PHOSPHOKINASE [4]: 283.5 u/L | CREATININE [4]: 0.22 mg/dL | GLUCOSE [4]: 182.5 mg/dL | LACTATE DEHYDROGENASE [4]: 152 u/L | LIPASE [4]: 8.5 u/L | PHOSPHORUS [4]: 12.7 mg/dL | POTASSIUM [4]: 5.83 MEQ/L | SODIUM [4]: 145.35 MEQ/L | TOTAL BILIRUBIN [4]: 0.2 mg/dL | TOTAL PROTEIN [4]: 6.4 G/DL | URIC ACID [4]: 2 mg/dL
